From patent US10294218B2 (VIROSTATICS SRL, priority 2012, dated 2019)

The molecules below were run on laboratory strain of HIV-1 (assay: Antiviral activity against HIV (AV), p24 in infected activated primary T cells). Settings: Human immunodeficiency virus 1, T-cell, read-out: AV50 (Inhibitory concentration 50% for antiviral activity).
Format: cell-based
Description: Activated primary T cells are infected with a laboratory strain of HIV-1, then cultured and exposed to different concentrations of the test compounds. HIV replication is analysed by measuring the viral protein p24 and expressed as percentage of untreated control. Inhibition of viral replication (AV) is then calculated (AV=100 minus the % p24 compared to control, AV of control=0%). Inhibitory concentration 50% for antiviral activity (AV50) is calculated.
In Tables 2, 3 and 4, ND means Not Determined.
`CCOc1ccccc1-c1cc(Nc2ccc(OC)c(N)c2)ncn1` [Example 62, N^1-[6-(2-Ethoxy-phenyl)-pyrimidin-4-yl]-4-methoxy-benzene-1,3-diamine] was tested, and the IC50 was under 0.08 µM. `COc1ccc(-c2cc(Nc3ccc(OC)c(N)c3)ncn2)cc1` [Example 66, 4-Methoxy-N^1-[6-(4-methoxy-phenyl)-pyrimidin-4-yl]-benzene-1,3-diamine] showed an IC50 of over 10 µM. With `COc1cccc(-c2cc(Nc3ccc(OC)c(N)c3)ncn2)c1` [Example 68, 4-Methoxy-N^1-[6-(3-methoxy-phenyl)-pyrimidin-4-yl]-benzene-1,3-diamine] the IC50 was 1 µM. In the case of `COc1ccc(Nc2cc(-c3ccccc3O)ncn2)cc1N` [Example 70, 2-[6-(3-Amino-4-methoxy-phenylamino)-pyrimidin-4-yl]-phenol], the IC50 is reported as over 10 µM. `COc1ccc(Nc2cc(-c3ccccc3OCc3ccccc3)ncn2)cc1N` [Example 71, N^1-[6-(2-Benzyloxy-phenyl)-pyrimidin-4-yl]-4-methoxy-benzene-1,3-diamine] showed an IC50 of 2 µM. Work on `CCOc1cc(F)ccc1-c1cc(Nc2ccc(OC)c(N)c2)ncn1` [Example 73, N^1-[6-(2-Ethoxy-4-fluoro-phenyl)-pyrimidin-4-yl]-4-methoxy-benzene-1,3-diamine] yielded an IC50 of 0.0002 µM. For `COc1ccc(Nc2cc(-c3ccccc3Oc3ccccc3)ncn2)cc1N` [Example 77, 4-Methoxy-N^1-[6-(2-phenoxy-phenyl)-pyrimidin-4-yl]-benzene-1,3-diamine], the IC50 was 10 µM. `COc1ccc(Nc2cc(-c3cccc(F)c3OC)ncn2)cc1N` [Example 81, N^1-[6-(3-Fluoro-2-methoxy-phenyl)-pyrimidin-4-yl]-4-methoxy-benzene-1,3-diamine] was tested, and the IC50 was 0.06 µM. In the case of `COc1ccc(Nc2cc(-c3cc(F)c(F)cc3OC)ncn2)cc1N` [Example 83, N^1-[6-(4,5-Difluoro-2-methoxy-phenyl)-pyrimidin-4-yl]-4-methoxy-benzene-1,3-diamine], the IC50 is reported as 0.007 µM. For `COc1ccc(Nc2cc(-c3ccc(F)cc3OC(C)C)ncn2)cc1N` [Example 86, N^1-[6-(4-Fluoro-2-isopropoxy-phenyl)-pyrimidin-4-yl]-4-methoxy-benzene-1,3-diamine], the IC50 was 0.1 µM. `COc1ccccc1-c1cc(Nc2cc(N)c(OC)c(F)c2)ncn1` [Example 88, 5-Fluoro-4-methoxy-N^1-[6-(2-methoxy-phenyl)-pyrimidin-4-yl]-benzene-1,3-diamine] showed an IC50 of over 0.4 µM. `CCOc1cc(F)ccc1-c1cc(Nc2cc(N)c(OC)c(F)c2)ncn1` [Example 89, N^1-[6-(2-Ethoxy-4-fluoro-phenyl)-pyrimidin-4-yl]-5-fluoro-4-methoxy-benzene-1,3-diamine] showed an IC50 of over 0.4 µM. `COc1cc(F)ccc1-c1cc(Nc2cc(N)c(OC)c(F)c2)ncn1` [Example 90, 5-Fluoro-N^1-[6-(4-fluoro-2-methoxy-phenyl)-pyrimidin-4-yl]-4-methoxy-benzene-1,3-diamine] gave an IC50 of over 0.4 µM. In the case of `COc1cc(F)c(Nc2cc(-c3ccccc3OC)ncn2)cc1N` [Example 92, 4-Fluoro-6-methoxy-N^3-[6-(2-methoxy-phenyl)-pyrimidin-4-yl]-benzene-1,3-diamine], the IC50 is reported as 0.25 µM. `CCOc1ccc(Nc2cc(-c3ccccc3OC)ncn2)cc1N` [Example 101, 4-Ethoxy-N^1-[6-(2-methoxy-phenyl)-pyrimidin-4-yl]-benzene-1,3-diamine] was tested, and the IC50 was 0.06 µM. In the case of `CCOc1ccc(Nc2cc(-c3ccc(F)cc3OC)ncn2)cc1N` [Example 105, 4-Ethoxy-N^1-[6-(4-fluoro-2-methoxy-phenyl)-pyrimidin-4-yl]-benzene-1,3-diamine], the IC50 is reported as 0.016 µM. `COc1ccc(Nc2cc(-c3cc(F)ccc3OC)ncn2)cc1O` [Example 122, 5-[6-(5-Fluoro-2-methoxy-phenyl)-pyrimidin-4-ylamino]-2-methoxy-phenol] was tested, and the IC50 was 0.08 µM.

Same assay, conditions: summary of AV, AP and cytotoxicity assays
With `CCOc1ccccc1-c1cc(Nc2ccc(OC)c(N)c2)ncn1` [Example 62, N^1-[6-(2-Ethoxy-phenyl)-pyrimidin-4-yl]-4-methoxy-benzene-1,3-diamine] the “antiviral and antiproliferative activity and cytotoxicity profile (in words)” value was “good antiviral and antiproliferative activity and a good cytotoxicity profile”. For `CCOc1cc(F)ccc1-c1cc(Nc2ccc(OC)c(N)c2)ncn1` [Example 73, N^1-[6-(2-Ethoxy-4-fluoro-phenyl)-pyrimidin-4-yl]-4-methoxy-benzene-1,3-diamine], the “antiviral and antiproliferative activity and cytotoxicity profile (in words)” value was “good antiviral and antiproliferative activity and a good cytotoxicity profile”. For `COc1ccc(Nc2cc(-c3cc(F)c(F)cc3OC)ncn2)cc1N` [Example 83, N^1-[6-(4,5-Difluoro-2-methoxy-phenyl)-pyrimidin-4-yl]-4-methoxy-benzene-1,3-diamine], the “antiviral and antiproliferative activity and cytotoxicity profile (in words)” value was “good antiviral and antiproliferative activity and a good cytotoxicity profile”.
